Experiments:
[1] = system: healthy subjects; test: Safety and tolerability (AEs, ECG, hs-troponin I) after single ascending doses in healthy volunteers; format: in vivo, human
Protocol: PK and PD data were collected as described herein. […] Changes from Baseline at each postbaseline timepoint were assessed.
A 12-lead electrocardiogram (ECG) was obtained after the subjects had rested in a supine position for at least 10 minutes. […] Digital 12-lead ECG evaluations was performed after 10 minutes of rest at Screening, predose on Day 1 (within 2 hours of dosing), and at various predetermined time points. Each time an ECG was completed, a 10-second paper ECG rhythm strip would also be obtained and maintained in the subject's source documentation.
The ECGs were transmitted to the core ECG laboratory who read the recordings in a blinded manner. An automated methodology was utilized with manual over-reading by a cardiologist. The following intervals were measured: RR, PR, QRS, and QT. Heart rate (HR) was calculated as 60/(RR×1000) (with RR expressed in msec) and rounded to the nearest integer.
Corrected QT interval (QTc) was calculated using the manually over-read QT values per the standard procedures of the central ECG laboratory. Each individual ECG QT value was corrected for HR. The measured QT data were corrected for HR using the Fridericia correction QTcF and the Bazzett method (QTcB) as per the following formulae/method (with QT, RR and QTc expressed in msec): […]
Any abnormal findings judged by the investigator to be clinically important were recorded as adverse events (AEs). AEs were mapped to system organ classes (SOCs) and preferred terms (PTs) using the Medical Dictionary for Regulatory Activities (MedDRA). AEs were monitored during the study and the data analyzed with respect to overall incidence, severity, and potential relationship to study medication. The blinded AEs were presented to the SRC for review after each cohort to aid in their decision on the dose of the subsequent cohort or if the study should be terminated. […] No ECG changes or symptoms were noted.
For the final analysis, the AEs were grouped by treatment group with all of the subjects who received placebo pooled as 1 group. AEs with onset on or after the first dose of study medication, or with an onset before the first dose of study medication that increased in severity on or after the first dose of study medication. Treatment-emergent AEs (defined as AEs starting […]) were summarized for the Safety Analysis Population by MedDRA SOC and PT, and by severity and relationship to treatment. Severe and life-threatening AEs, SAEs, and AEs leading to study withdrawal, if any, were presented in data listings.
Serum samples were drawn for hs-troponin I. Analyses were performed using the Abbott Architect STAT High Sensitivity Troponin I assay.

[2] = system: patients with stable HFrEF; test: Safety and tolerability (TEAEs, troponin, ECG, Holter) in SAD cohorts, patients with stable HFrEF; format: in vivo, human
Protocol: Safety and efficacy assessments were conducted by measuring patients' vital signs and laboratory parameters; performing TTE to measure, e.g., systolic ejection time; performing electrocardiograms (e.g., 12-lead ECG), real-time ECG telemetry (e.g., at least 3-lead), and Holter ECG; and measuring levels of troponin (e.g., troponin I and/or troponin T) and 4β-hydroxycholesterol.
The following safety laboratory parameters were measured: (1) hematology parameters (CBC, including differential count, and platelet count); (2) serum chemistry parameters (e.g., sodium, potassium, chloride, bicarbonate, calcium, magnesium, urea, creatinine, ALP, ALT, AST, total bilirubin, glucose, and CPK); and (3) urinalysis parameters (e.g., pH, protein, glucose, leukocyte cstcrasc, and blood).
Abnormal and/or rising troponin values (as per investigator's judgment and taking into account potential baseline troponin elevation frequently observed in heart failure) led to the patient being clinically evaluated for possible myocardial ischemia. […] The entire clinical context (e.g., signs, symptoms, new ECG changes, new troponin, and CK-MB abnormalities) was evaluated and correlated with any other relevant clinical findings, patient's medical history, and laboratory data to determine the clinical significance of the findings. Troponin results performed on Day 2 of Part 1 (SAD) and Day 10 of Part 2 (MAD) at a local lab were reviewed prior to the patient being discharged the next day.
Primary endpoints for this study (safety measures) included the following: treatment-emergent AEs and SAEs; ECG recordings, interpretation, and intervals; vital signs; serum Troponin I concentrations; laboratory abnormalities; and physical examination abnormalities.

[3] = SAD Cohorts 1 and 2, 175 mg (n = 8)
[4] = SAD Cohorts 1 and 2, 350 mg (n = 8)
[5] = SAD Cohorts 1 and 2, 400 mg Split Dose (n = 4)
[6] = SAD Cohorts 1 and 2, 550 mg Split Dose (n = 2)
[7] = SAD Cohorts 1 and 2, Total Active (n = 12)

## Cn1cc(S(=O)(=O)[C@@](C)(F)C2CCN(C(=O)Nc3ccon3)CC2)c(C(F)F)n1 [Compound I, (R)-4-(1-((3-(difluoromethyl)-1-methyl-1H-pyrazol-4-yl)sulfonyl)-1-fluoroethyl)-N-(isoxazol-3-yl) piperidine-1-carboxamide]
[1]; 50 mg (50.0%)
  subjects with AEs related to treatment: 3 subjects
[1]; 100 mg, 16-22 hours postdosing
  serious AE, one subject: short duration of complete AV block
[1]; 350 mg (50.0%)
  subjects with AEs related to treatment: 3 subjects
[1]; 525 mg, 6 hours postdose, upper limit of normal 15
  hs-troponin I concentration, one subject: 16 ng/L
[2]; 550 mg, 24 hours post-dose (4×ULN)
  maximum troponin I level, one subject: 0.12 ng/mL
[2]; [3]
  TEAE: Any SOC, any PT: 2 (25.0) n (%)
  TEAE: Dyspnea: 1 (12.5) n (%)
  TEAE: Fatigue: 1 (12.5) n (%)
  TEAE: Infusion site discomfort: 1 (12.5) n (%)
  TEAE: Urinary tract infection: 1 (12.5) n (%)
[2]; [4]
  TEAE: Any SOC, any PT: 5 (62.5) n (%)
  TEAE: Bursitis: 1 (12.5) n (%)
  TEAE: Diarrhoea: 1 (12.5) n (%)
  TEAE: Hypomagnesemia: 1 (12.5) n (%)
  TEAE: Oral contusion: 1 (12.5) n (%)
  TEAE: Proteinuria: 1 (12.5) n (%)
[2]; [5]
  TEAE: Anemia: 1 (25.0) n (%)
  TEAE: Any SOC, any PT: 3 (75.0) n (%)
  TEAE: Neck pain: 1 (25.0) n (%)
  TEAE: Orthostatic hypotension: 1 (25.0) n (%)
  TEAE: Ventricular extrasystoles: 1 (25.0) n (%)
[2]; [6]
  TEAE: Any SOC, any PT: 1 (50.0) n (%)
  TEAE: Cardiac discomfort: 1 (50.0) n (%)
  TEAE: Dyspnea: 1 (50.0) n (%)
  TEAE: Troponin increase: 1 (50.0) n (%)
[2]; [7]
  TEAE: Anemia: 1 (8.3) n (%)
  TEAE: Any SOC, any PT: 10 (83.3) n (%)
  TEAE: Bursitis: 1 (8.3) n (%)
  TEAE: Cardiac discomfort: 1 (8.3) n (%)
  TEAE: Diarrhoea: 1 (8.3) n (%)
  TEAE: Diverticulitis: 1 (8.3)− n (%)
  TEAE: Dyspnea: 1 (8.3) n (%)
  TEAE: Fatigue: 1 (8.3) n (%)
  TEAE: Hypomagnesemia: 1 (8.3) n (%)
  TEAE: Infusion site discomfort: 1 (8.3) n (%)
  TEAE: Neck pain: 1 (8.3) n (%)
  TEAE: Oral contusion: 1 (8.3) n (%)
  TEAE: Orthostatic hypotension: 1 (8.3) n (%)
  TEAE: Proteinuria: 1 (8.3) n (%)
  TEAE: Troponin increase: 1 (8.3) n (%)
  TEAE: Urinary tract infection: 1 (8.3) n (%)
  TEAE: Ventricular extrasystoles: 1 (8.3) n (%)

Source: US20250325531A1, “TREATMENT OF SYSTOLIC DYSFUNCTION” (MyoKardia, Inc., priority 2024, published 2025)
